Reference: PubChem BioAssay (NCI)
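GI50 = concentration required for 50% inhibition of growth. TGI: total growth inhibition.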

What was measured:
Experiment in all cases: growth of human tumour cells (NCI), 384-well format; in the data active = GI50 below about 0.43 µM; inactive = the rest
ACHN renal = system: ACHN renal
NCI/ADR-RES ovarian = system: NCI/ADR-RES ovarian
HCT-15 colon = system: HCT-15 colon
PC-3 prostate = system: PC-3 prostate
A549 NSCLC = system: A549 NSCLC
TK-10 renal = system: TK-10 renal
OVCAR-8 ovarian = system: OVCAR-8 ovarian
HOP-62 NSCLC = system: HOP-62 NSCLC
MCF7 breast = system: MCF7 breast
SF-295 CNS = system: SF-295 CNS
HCT-116 colon = system: HCT-116 colon
SW-620 colon = system: SW-620 colon
HL-60(TB) leukemia = system: HL-60(TB) leukemia
COLO 205 colon = system: COLO 205 colon
A498 renal = system: A498 renal
OVCAR-4 ovarian = system: OVCAR-4 ovarian
DU-145 prostate = system: DU-145 prostate
M14 melanoma = system: M14 melanoma
EKVX NSCLC = system: EKVX NSCLC
MDA-MB-468 breast = system: MDA-MB-468 breast
SF-268 CNS = system: SF-268 CNS
HT29 colon = system: HT29 colon
SNB-75 CNS = system: SNB-75 CNS
NCI-H460 NSCLC = system: NCI-H460 NSCLC
CAKI-1 renal = system: CAKI-1 renal
OVCAR-3 ovarian = system: OVCAR-3 ovarian
OVCAR-5 ovarian = system: OVCAR-5 ovarian
IGROV1 ovarian = system: IGROV1 ovarian
KM12 colon = system: KM12 colon
UO-31 renal = system: UO-31 renal
U251 glioblastoma = system: U251 glioblastoma
RPMI-8226 leukemia = system: RPMI-8226 leukemia
UACC-62 melanoma = system: UACC-62 melanoma
MOLT-4 leukemia = system: MOLT-4 leukemia
NCI-H226 lung = system: NCI-H226 lung
BT-549 breast = system: BT-549 breast
HCC-2998 colon = system: HCC-2998 colon
HOP-92 NSCLC = system: HOP-92 NSCLC
CCRF-CEM leukemia = system: CCRF-CEM leukemia
LOX IMVI melanoma = system: LOX IMVI melanoma
786-0 renal = system: 786-0 renal

CCNCCS(=O)(=O)NC[C@@]1(c2ccccc2)SC(NC(=O)C(C)(C)C)=NN1C(=O)C(C)(C)C
< 0.01 µM: TGI (HL-60(TB) leukemia) | TGI (COLO 205 colon) | TGI (M14 melanoma) | TGI (MDA-MB-468 breast) | TGI (SF-268 CNS) | TGI (HT29 colon) | TGI (NCI-H460 NSCLC) | TGI (OVCAR-3 ovarian) | TGI (RPMI-8226 leukemia) | TGI (MOLT-4 leukemia) | TGI (CCRF-CEM leukemia)
62.6 µM: TGI (SW-620 colon)
28.6 µM: TGI (786-0 renal)
48.7 µM: TGI (SNB-75 CNS)
75.6 µM: TGI (HOP-62 NSCLC)
> 100 µM: TGI (ACHN renal) | TGI (NCI/ADR-RES ovarian) | TGI (HCT-15 colon) | TGI (PC-3 prostate) | TGI (A549 NSCLC) | TGI (TK-10 renal) | TGI (OVCAR-8 ovarian) | TGI (SF-295 CNS) | TGI (HCT-116 colon) | TGI (A498 renal) | TGI (OVCAR-4 ovarian) | TGI (DU-145 prostate) | TGI (EKVX NSCLC) | TGI (CAKI-1 renal) | TGI (OVCAR-5 ovarian) | TGI (IGROV1 ovarian) | TGI (KM12 colon) | TGI (UO-31 renal) | TGI (U251 glioblastoma) | TGI (UACC-62 melanoma) | TGI (NCI-H226 lung)
58.9 µM: TGI (BT-549 breast)
24.6 µM: TGI (HCC-2998 colon)
62 µM: TGI (HOP-92 NSCLC)
active: GI50 (HCT-15 colon) 0.108 µM | GI50 (PC-3 prostate) < 0.01 µM | GI50 (A549 NSCLC) < 0.01 µM | GI50 (OVCAR-8 ovarian) < 0.01 µM | GI50 (HOP-62 NSCLC) < 0.01 µM | GI50 (MCF7 breast) < 0.01 µM | GI50 (SF-295 CNS) 0.0177 µM | GI50 (HCT-116 colon) < 0.01 µM | GI50 (SW-620 colon) < 0.01 µM | GI50 (HL-60(TB) leukemia) < 0.01 µM | GI50 (COLO 205 colon) < 0.01 µM | GI50 (A498 renal) < 0.01 µM | GI50 (DU-145 prostate) < 0.01 µM | GI50 (M14 melanoma) < 0.01 µM | GI50 (EKVX NSCLC) < 0.01 µM | GI50 (MDA-MB-468 breast) < 0.01 µM | GI50 (SF-268 CNS) < 0.01 µM | GI50 (HT29 colon) < 0.01 µM | GI50 (SNB-75 CNS) < 0.01 µM | GI50 (NCI-H460 NSCLC) < 0.01 µM | GI50 (CAKI-1 renal) 0.0427 µM | GI50 (OVCAR-3 ovarian) < 0.01 µM | GI50 (OVCAR-5 ovarian) < 0.01 µM | GI50 (IGROV1 ovarian) < 0.01 µM | GI50 (KM12 colon) < 0.01 µM | GI50 (U251 glioblastoma) < 0.01 µM | GI50 (RPMI-8226 leukemia) < 0.01 µM | GI50 (UACC-62 melanoma) < 0.01 µM | GI50 (MOLT-4 leukemia) < 0.01 µM | GI50 (BT-549 breast) < 0.01 µM | GI50 (HCC-2998 colon) < 0.01 µM | GI50 (HOP-92 NSCLC) < 0.01 µM | GI50 (CCRF-CEM leukemia) < 0.01 µM | GI50 (LOX IMVI melanoma) < 0.01 µM | GI50 (786-0 renal) < 0.01 µM
22.4 µM: TGI (LOX IMVI melanoma)
42.7 µM: TGI (MCF7 breast)
inactive: GI50 (ACHN renal) 52.6 µM | GI50 (NCI/ADR-RES ovarian) 3.42 µM | GI50 (TK-10 renal) 26.4 µM | GI50 (OVCAR-4 ovarian) 29.5 µM | GI50 (UO-31 renal) 63.3 µM | GI50 (NCI-H226 lung) 74.6 µM
